Entries after “also recorded” stand apart in the source; their conditions may differ. Like-named read-outs stand apart in the source and are kept apart here.
What was measured:
WT (Col-0) Arabidopsis [1] = experiment: Root elongation / root growth-rate inhibition on MS with the substance, wild type; type: in vivo, Arabidopsis thaliana
Excerpt: (§1) The Arabidopsis strains used were all in the Columbia-0 (Col-0) background. The gain of function lines psx00478 and psx08098 containing pBIG2113SF binary vector, expressing a single cDNA under 35S promoter, were ordered from FOX library (Takanari I. et al., 2006. ibid). Transgenic lines were generated using pBINPLUS (van Engelen F A et al., 1995. Transgenic Research 4, 288-290), in which AT2G19750 gene was cloned downstream of the 35S promoter, and transformed to WT Col-0 via Agrobacterium cv3101 mediated transformation. The presence of the transgene was confirmed by PCR with specific primers for S30. Seeds were cultivated in Petri plates using medium containing 0.8% agar, half-strength Murashige and Skoog salts (MS), and 1% sucrose, pH 5.7. The Petri plates were placed in chambers at 22° C. under light/dark conditions of 16 h white light at 75 mol m^2 sec^−1 and 8 h darkness, at 55% relative humidity. For root phenotype experiments, plates were placed vertically in the chambers.
To calculate the percentage of growth inhibition, seeds were germinated on MS containing the following concentrations of I3C: 0, 50, 100, 200, 300, 400, 500 and 750 μM. The root length of the seedlings was measured at days 3, 4, 5, 7 and 10. To calculate the percentage of growth inhibition, the slope of the regression lines for each concentration was used in the next equation: […]
To calculate the degree of tolerance to I3C, growth rates of WT and the I3CT1 strains were determined for increasing concentrations of I3C. Root length was measured at several time points over increasing I3C concentrations (FIG. 3). The growth rate of the WT and the I3CT1 transgenic lines was similar on MS; however, a growth rate of 3 and 2.3 times faster was observed on 400 μM I3C for the transgenic lines I3CT1^2 and I3CT1^8098 respectively. […] However, the growth rate of the WT was inhibited by 50% at about 50 μM while the growth rate of the I3CT1^2 and I3CR1^8098 transgenic lines was inhibited by 50% only when the I3C concentration was 300 μM and 200 μM respectively.
(§2) To test if overexpression of S30 causes tolerance specifically to I3C, or rather causes general tolerance to external chemical stress, root growth was tested with the addition of three groups of molecules to the growth medium: two subcategories of indole derivates: 1. Breakdown products of indol-3-acetaldoxime such as I3C, indol-3-acetic acid (IAA), and 3—Indoleacetonitril (IAN); and 2. breakdown products of I3C such as 3, 3Diindolylmethane (DIM), indole-3-carboxaldehyde (I3xA), and methyl Indole 3-carboxylate (MI3Cx). The third group contains benzoxazinoids: 2-Benzoxazolinon (BOA) and 6-Methoxy-2-benzoxazolinone (mBOA). Benzoxanoids are chemically unrelated to I3C, but with similar function of plant defense in gramineae (FIG. 4A). WT and the I3CT1 transgenic strains were assayed for root growth on 50% and 90% inhibition concentrations (IC) of the above molecules (Table 3).

I3CT1 transgenic strains = experiment: Root growth of I3CT1 on 50% and 90% inhibition concentrations of plant defense molecules; type: in vivo, Arabidopsis thaliana; settings: FIG. 4B
Procedure: FIG. 4A: Plant defense molecules assayed: Breakdown products of indol-3-acetaldoxime (upper left panel), Breakdown products of I3C (lower panel), and benzoxazinoids (right panel). FIG. 4B: I3CT1 and WT were grown on 50% and 90% inhibition concentrations of the chemicals shown in μM. Data represent mean±SE.
as §2

[2] = system: I3CT1^2 transgenic line (S30 overexpressing); experiment: Root growth-rate inhibition by I3C, transgenic line I3CT1^2; type: in vivo, Arabidopsis thaliana; settings: I3CT1^2, root growth rate
Excerpt: as §1, with “For root phenotype experiments, plates were placed vertically in the chambers.” left out
(§3) To calculate the percentage of growth inhibition, seeds were germinated on MS containing the following concentrations of I3C: 0, 50, 100, 200, 300, 400, 500 and 750 μM. The root length of the seedlings was measured at days 3, 4, 5, 7 and 10. […]
(§4) To calculate the degree of tolerance to I3C, growth rates of WT and the I3CT1 strains were determined for increasing concentrations of I3C. Root length was measured at several time points over increasing I3C concentrations (FIG. 3). […]

[3] = system: I3CT1^8098 transgenic line (S30 overexpressing); experiment: Root growth-rate inhibition by I3C, transgenic line I3CT1^8098; type: in vivo, Arabidopsis thaliana; settings: I3CT1^8098 (printed I3CR1^8098)
Excerpt: as §1, with “For root phenotype experiments, plates were placed vertically in the chambers.” left out
as §3, §4

WT (Col-0) Arabidopsis [4] = experiment: Root length on I3C, IAA and mixtures (auxin antagonism), WT; type: in vivo, Arabidopsis thaliana
Procedure: I3CT1^2, I3CT1^8098 (FIG. 10A, designated as ICT1) and WT (FIG. 10B) plants were grown on three concentrations of I3C (50, 200, 500 μM), three concentrations of IAA (50, 200, 500 nM) and mixtures between the two. Root length was measured, and the mean root length of the transgenic lines I3CT1^2, I3CT1^8098 was calculated (presented as “I3CT1”). Three-way ANOVA was performed after SQRT transformation to obtain a normal distribution. FIG. 10C: The model of inhibition.
It was previously shown that I3C acts as an auxin antagonist on TIR1 (Katz et al., 2015b, ibid).

WT (Col-0) Arabidopsis [5] = settings: 400 μM I3C; cited from earlier work
[6] = Arabidopsis thaliana, root elongation, Table 3, read-out: substance concentration inhibiting root elongation by 50%
[7] = root elongation, Table 3, read-out: substance concentration inhibiting root elongation by 50%
[8] = read-out: I3C concentration at which growth rate was inhibited by 50%

SMILES	IC50 (WT (Col-0) Arabidopsis [1]; [6]) [µM]	substance concentration inhibiting root elongation by 90% (WT (Col-0) Arabidopsis [1]; root elongation, Table 3) [µM]	tolerance of I3CT1 to the chemical (root growth) (I3CT1 transgenic strains)	IC50 (WT (Col-0) Arabidopsis [1]; [7]) [µM]	other results
O=C(O)Cc1c[nH]c2ccccc12 [IAA, Indole-3-acetic acid]	50	200	tolerance of the I3CT1 line was limited to three chemicals; also recorded: slight tolerance	–	–
OCc1c[nH]c2ccccc12 [I3C, Indole 3-carbinol]	–	400	tolerance of the I3CT1 line was limited to three chemicals	100	I3C concentration of 90% inhibition (WT (Col-0) Arabidopsis [1]; WT, root growth rate): 400 µM; IC50 (WT (Col-0) Arabidopsis [1]; WT, root growth rate, read-out: I3C concentration at which growth rate was inhibited by 50%): ~50 µM; I3C concentration of maximum inhibition (WT (Col-0) Arabidopsis [1]; all strains (WT and I3CT1 lines)): 750 µM; I3C concentration of 90% inhibition [2]: 750 µM; IC50 [2, 8]: 300 µM; I3C concentration of 90% inhibition [3]: 500 µM; IC50 [3, 8]: 200 µM; inhibition of root elongation by I3C itself (WT (Col-0) Arabidopsis [4]; 500 μM I3C): 95%; rescue of IAA root-elongation inhibition by I3C (WT (Col-0) Arabidopsis [4]; 50 and 200 μM I3C added to IAA, WT): rescues the IAA phenotype; inhibition of root elongation (WT (Col-0) Arabidopsis [5]): 95%
O=Cc1c[nH]c2ccccc12 [I3xA, Indole 3-Carboxalldehyde]	–	300	did not exhibit any pronounced tolerance	140	–
N#CCc1c[nH]c2ccccc12 [IAN, Indole 3-acetonitril]	–	160	did not exhibit any pronounced tolerance	50	–
COC(=O)c1c[nH]c2ccccc12 [MI3Cx, Methyl Indole 3-Carboxylate]	200	375	did not exhibit any pronounced tolerance	–	–
c1ccc2c(Cc3c[nH]c4ccccc34)c[nH]c2c1 [DIM, 3,3′-Diindolylmethane]	60	200	tolerance of the I3CT1 line was limited to three chemicals	–	–
O=c1[nH]c2ccccc2o1 [BOA, 2-Benzoxazolinon]	–	400	–	–	IC50 (WT (Col-0) Arabidopsis [1]; Arabidopsis thaliana, read-out: substance concentration inhibiting root elongation by 50%): 50 µM
COc1ccc2[nH]c(=O)oc2c1 [mBOA, 6-Methoxy-2-benzoxazolinone]	50	400	–	–	–

From patent publication US20230220410A1, “PLANTS TOLERANT TO BROAD RANGE OF PATHOGENS” (RAMOT AT TEL-AVIV UNIVERSITY LTD., priority 2020, published 2023)
